# Read-outs that look alike come from different tables or passages of the source.
# Columns and labels:
# Experiment in all cases: NCI anticancer screen, SRB assay, 48 h
# Format in all cases: cell-based, human
# KM12 (colon) = conditions: Homo sapiens
# Procedure, shortened: (§1)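 Sulforhodamine B protein assay read cell growth after 48 h of continuous compound exposure. Dose-response curves per cell line used at least five 10-fold-diluted concentrations, within a panel of fifty-three human lines from nine tumour types.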
# NCI/ADR-RES (ovarian) = conditions: Homo sapiens, NCI/ADR-RES
# Procedure, shortened: as §1
# [1] = tested on: NCI-H23 (non-small cell lung); conditions: Homo sapiens
# Procedure, shortened: as §1
# OVCAR-4 (ovarian) = conditions: Homo sapiens
# Procedure, shortened: as §1
# MALME-3M (melanoma) = conditions: Homo sapiens
# Procedure, shortened: as §1
# HCT-116 (colon) = conditions: Homo sapiens
# Procedure, shortened: as §1
# ACHN (renal) = conditions: Homo sapiens
# Procedure, shortened: as §1
# SK-OV-3 (ovarian) = conditions: Homo sapiens
# Procedure, shortened: as §1
# SK-MEL-28 (melanoma) = conditions: Homo sapiens
# Procedure, shortened: as §1
# SNB-19 (CNS) = conditions: Homo sapiens
# Procedure, shortened: as §1
# [2] = tested on: EKVX (non-small cell lung); conditions: Homo sapiens
# Procedure, shortened: as §1
# OVCAR-3 (ovarian) = conditions: Homo sapiens
# Procedure, shortened: as §1
# CAKI-1 (renal) = conditions: Homo sapiens
# Procedure, shortened: as §1
# M14 (melanoma) = conditions: Homo sapiens
# Procedure, shortened: as §1
# [3] = tested on: NCI-H226 (non-small cell lung); conditions: Homo sapiens
# Procedure, shortened: as §1
# [4] = tested on: A549/ATCC (non-small cell lung); conditions: Homo sapiens
# Procedure, shortened: as §1
# [5] = tested on: RPMI-8226 (leukemia cell line); conditions: Homo sapiens
# Procedure, shortened: as §1
# OVCAR-8 (ovarian) = conditions: Homo sapiens
# Procedure, shortened: as §1
# UO-31 (renal) = conditions: Homo sapiens
# Procedure, shortened: as §1
# SK-MEL-2 (melanoma) = conditions: Homo sapiens
# Procedure, shortened: as §1
# HT29 (colon) = conditions: Homo sapiens
# Procedure, shortened: as §1
# COLO 205 (colon) = conditions: Homo sapiens, COLO 205
# Procedure, shortened: as §1
# UACC-62 (melanoma) = conditions: Homo sapiens
# Procedure, shortened: as §1
# RXF 393 (renal) = conditions: Homo sapiens
# Procedure, shortened: as §1
# UACC-257 (melanoma) = conditions: Homo sapiens
# Procedure, shortened: as §1
# SNB-75 (CNS) = conditions: Homo sapiens
# Procedure, shortened: as §1
# [6] = tested on: HOP-62 (non-small cell lung); conditions: Homo sapiens
# Procedure, shortened: as §1
# [7] = tested on: NCI-H322M (non-small cell lung); conditions: Homo sapiens
# Procedure, shortened: as §1
# TD-47D (breast) = conditions: Homo sapiens
# Procedure, shortened: as §1
# [8] = 48 h exposure, SRB, read-out: GI50
# [9] = read-out: pGI50 (-log of molar concentration causing 50% inhibition of net cell growth) (converted)
compound,measurement,setting,value
"O=C(/C=C/c1cccc(O)c1)c1cccc(-n2cc(-c3ccccc3)[nH]c2=O)c1 [4a, 1-3-[(E)-3-(3-hydroxyphenyl)-2-propenoyl]phenyl-4-phenyl-2,3-dihydro-1H-2-imidazolone]",GI50,KM12 (colon); [8],1.83 µM
same,GI50,KM12 (colon); [9],1.82 µM
same,GI50,"NCI/ADR-RES (ovarian); NCl/ADR-RES, 48 h exposure, SRB, read-out: GI50",3.73 µM
same,GI50,NCI/ADR-RES (ovarian); [9],3.72 µM
same,GI50,[1]; [8],3.35 µM
same,GI50,[1]; [9],3.39 µM
same,GI50,OVCAR-4 (ovarian); [8],5.3 µM
same,GI50,OVCAR-4 (ovarian); [9],5.25 µM
same,GI50,"MALME-3M (melanoma); Malme-3M, read-out: pGI50 (-log of molar concentration causing 50% inhibition of net cell growth) (converted)",6.17 µM
same,GI50,"MALME-3M (melanoma); MALME-3M, 48 h exposure, SRB, read-out: GI50",6.21 µM
same,GI50,HCT-116 (colon); [8],3.02 µM
same,GI50,HCT-116 (colon); [9],3.02 µM
same,GI50,ACHN (renal); [8],2.76 µM
same,GI50,ACHN (renal); [9],2.75 µM
same,GI50,SK-OV-3 (ovarian); [8],11.1 µM
same,GI50,SK-OV-3 (ovarian); [9],11.2 µM
same,GI50,SK-MEL-28 (melanoma); [8],5.63 µM
same,GI50,SK-MEL-28 (melanoma); [9],5.62 µM
same,GI50,SNB-19 (CNS); [8],10.9 µM
same,GI50,SNB-19 (CNS); [9],11 µM
same,GI50,[2]; [8],15.6 µM
same,GI50,[2]; [9],15.5 µM
same,GI50,OVCAR-3 (ovarian); [8],3.08 µM
same,GI50,OVCAR-3 (ovarian); [9],3.09 µM
same,GI50,CAKI-1 (renal); [8],13.3 µM
same,GI50,CAKI-1 (renal); [9],13.2 µM
same,GI50,M14 (melanoma); [8],4.53 µM
same,GI50,M14 (melanoma); [9],4.57 µM
same,GI50,[3]; [8],24.8 µM
same,GI50,[3]; [9],24.5 µM
same,GI50,[4]; [8],3.89 µM
same,GI50,[4]; [9],3.89 µM
same,GI50,[5]; [8],2.15 µM
same,GI50,[5]; [9],2.14 µM
same,GI50,OVCAR-8 (ovarian); [8],2.8 µM
same,GI50,OVCAR-8 (ovarian); [9],2.82 µM
same,GI50,UO-31 (renal); [8],2.16 µM
same,GI50,UO-31 (renal); [9],2.14 µM
same,GI50,SK-MEL-2 (melanoma); [8],8.26 µM
same,GI50,SK-MEL-2 (melanoma); [9],8.32 µM
same,GI50,"HT29 (colon); HT-29, 48 h exposure, SRB, read-out: GI50",3.33 µM
same,GI50,"HT29 (colon); HT-29, read-out: pGI50 (-log of molar concentration causing 50% inhibition of net cell growth) (converted)",3.31 µM
same,GI50,"COLO 205 (colon); COLO205, read-out: pGI50 (-log of molar concentration causing 50% inhibition of net cell growth) (converted)",2 µM
same,GI50,COLO 205 (colon); [8],2.01 µM
same,GI50,UACC-62 (melanoma); [8],3.65 µM
same,GI50,UACC-62 (melanoma); [9],3.63 µM
same,GI50,"RXF 393 (renal); RXF 393, 48 h exposure, SRB, read-out: GI50",1.89 µM
same,GI50,"RXF 393 (renal); RXF-393, read-out: pGI50 (-log of molar concentration causing 50% inhibition of net cell growth) (converted)",1.91 µM
same,GI50,UACC-257 (melanoma); [8],7.68 µM
same,GI50,UACC-257 (melanoma); [9],7.76 µM
same,GI50,SNB-75 (CNS); [8],12.1 µM
same,GI50,SNB-75 (CNS); [9],12 µM
same,GI50,[6]; [8],6.93 µM
same,GI50,[6]; [9],6.92 µM
same,GI50,[7]; [8],10.6 µM
same,GI50,[7]; [9],10.7 µM
same,GI50,TD-47D (breast); [8],4.24 µM
same,GI50,TD-47D (breast); [9],4.27 µM

# From US8889874B2, “Imidazolone-chalcone derivatives as potential anticancer agent and process for the preparation thereof” (Council of Scientific and Industrial Research, priority 2010, dated 2014)
